Data on seven compounds can be found in patent EP4592274A1, “RADIOLABELED TYROSINE DERIVATIVE AND APPLICATION THEREOF” (OSAKA UNIVERSITY, priority 2022, dated 2024).

The nature of data set [1]: Thin-layer chromatography (TLC) analysis of decomposition after production. Format: physicochemical. Conditions: 24 hours after purification; in sodium ascorbate aqueous solution (final concentration 1%). The method, then: The crude product solution (1 µL) was analyzed by thin-layer chromatography (TLC). The sample was spotted on a thin-layer plate (silica gel 60F254), and a mixed solvent of acetonitrile/water (2/1) was used as a developing solvent. The thin-layer plate was exposed to an imaging plate (BAS IP MS 2025E, GE Healthcare) for about 15 min, and then analyzed by a bioimage analyzer (Tyhoon™ FLA-7000, Cytiva). The results are shown in Fig.2. ^211At-AAMT-OMe in the crude product solution was detected at Rf 0.80, and the radiochemical yield (RCY) was 81.3%.
Before purification, immediately after production, 3 hours after production, and 24 hours after production, ^211At-AAMT-OMe was analyzed by thin-layer chromatography (TLC) in the same manner as described above.
24 hours after production, (R)-^211At-AAMT-OMe was analyzed by thin-layer chromatography (TLC) in the same manner as described above.
24 hours after production, ^211At-AAMT-OEt was analyzed by thin-layer chromatography (TLC) in the same manner as described above.
24 hours after production, ^211At-AAMT-OPr was analyzed by thin-layer chromatography (TLC) in the same manner as described above.
24 hours after production, ^211At-AAMPhe-OMe was analyzed by thin-layer chromatography (TLC) in the same manner as described above.

Data set [2] deals with CDDP-resistant A549 (A549 CDDP-r). In words: Cell viability of CDDP-resistant A549 in the presence of CDDP (Test Example 7). It counts as cell-based, human. To be noted: A549 CDDP-r at 100 µg/mL CDDP. How it is done:
Cisplatin (CDDP) was added to a human lung cancer cell line, A549 at an initial concentration of 1 µg/mL. After 3 days, dead cells were removed, and CDDP was again added. Cells that grew like A549 even in the presence of CDDP were isolated and maintained for 3 months while gradually increasing the concentration of CDDP in a culture medium.

Data set [3] relates to human pancreatic cancer cell line, PANC1. In words: Measurement of accumulated amounts of 211At-labeled compounds in tumors of PANC1 transplanted mice (Test Example 5). To be noted: 0.1 MBq per mouse via tail vein. It counts as in vivo. The method, then: Radiation doses before and after the administration were measured, and a difference between them was defined as an injected dose (ID). Ten minutes and one hour after administration, the mice were anesthetized by isoflurane inhalation, the tumors were isolated by autopsy in chronological order, and their radiation doses and weights were measured using a gamma counter (2480 Wizard^2, PerkinElmer) and a semimicro scale (Shimadzu Corporation, readability 10 µg), respectively. For comparison between accumulated amounts, accumulated amounts per unit amount (% ID/g) were calculated.

Data set [4] has the same test system. In words: Imaging of mice subcutaneously transplanted with PANC1 (Test Example 2). To be noted: 2 hours after administration, 0.5 MBq per mouse via tail vein.
Description: Immunodeficient mice (Balb/c-nu/nu, 5-week-old, male) were habituated for 1 week and then subcutaneously transplanted with a human pancreatic cancer cell line (PANC1, 1 × 10^7 cells/mouse). After the transplantation, the mice were observed over time until tumor reached a size large enough for imaging (about 1000 mm^3). […] Two hours after administration, the mice were anesthetized by isoflurane inhalation, and planar images were taken using a γ camera (E-cam, Siemens).
Data set [5] relates to CDDP-resistant A549 (A549 CDDP-r). Briefly: Cytotoxicity test on CDDP-resistant A549 (Test Example 8). To be noted: cultivation for 48 hours. The method, then: Two days before experiment, A549 and CDDP-resistant A549 (A549 CDDP-r) were each seeded in a 96-well plate at a concentration of 1 × 10^5 cells/mL. ^211At-AAMT-OMe or ^211At-AAMT adjusted to a predetermined concentration was added to A549 cells and CDDP-resistant A549 cells, respectively, and the cells were cultured (CO2 5%, 37°C). After the cultivation for 48 hours, Cell counting kit-8 (DOJINDO LABORATORIES) was added. After the addition, the cells were cultured at 37°C for 1 hour, and cell viability was measured using absorbance at 450 nm as an indicator.

In data set [6] the test system is human pancreatic cancer cell line, PANC1. Conditions: up to 21 days after administration, 1 MBq per mouse. The method, then: Tumor sizes and body weights were measured over time after the administration. The experiment was terminated 21 days after administration. It should be noted that in Fig. 21 and Fig. 22, "OMe" is ^211At-AAMT-OMe and "OEt" is ^211At-AAMT-OEt.

Data set [7] deals with PANC1. Briefly: Cellular uptake test (using PANC1). Format: cell-based, human. Conditions: compared to 211At-AAMT; for uptake speed: PANC1 cells. The method, then:
• Cells to be used: PANC1 • Culture medium to be used: D-MEM (containing 10% FBS, 1% P/S)
Two days before a test day, a cell suspension was prepared in such a manner that the concentration of predetermined cells was 1 x 10^5 cells/mL in the same manner as in Test Example 1. The cell suspension was seeded in a 24-well multiculture plate at a volume of 0.5 mL per well. On the day of the test, cultures were confirmed to be subconfluent (which refers to a state where 70-80% of the well is covered in density). The cells were washed twice with warmed PBS(-) Buffer (166-23555, FUJIFILM Wako Pure Chemical Corporation), the culture medium was replaced with HBSS(-) Buffer (085-09355, FUJIFILM Wako Pure Chemical Corporation), and the plate was left to stand in an incubator (MINIcell-35, WakenBtech Co., Ltd) until an RI addition test.
^211At-AAMT-OMe, ^211At-AAMT-OEt, ^211At-AAMT-OPr, or ^211At-AAMT was added to the prepared cells at 10 µL/well. BCH (LAT1 inhibitor, 20 mM) or unlabeled AMT (α-methyl tyrosine, […]) was previously (15 minutes before) added (10 µg/mL). The cells were cultured (CO2 5%, 37°C), and after 30 minutes, the liquid was removed by suction using an aspirator. The cells were washed twice with PBS(-). The cells were lysed by adding 0.1N NaOH to obtain a lysate, and the radioactivity of the lysate was measured using a γ counter. After the radioactivity measurement, the lysate was loaded into a 96-well plate at a volume of 10 µL per well, the protein amount was measured by the BCA method, and the number of cells was corrected based on the protein amount. Absorbance was measured by MultiScanFC (Thermo Fisher). The uptake level of ^211At-AAMT-OMe, ^211At-AAMT-OEt, ^211-At-AAMT-OPr, or ^211At-AAMT into the cells (number of radioactivity counts/protein amount) was calculated.

Data set [8] has as its system gemcitabine-resistant human pancreatic cancer cell line, PANC1 (PANC1 Gem-r). In words: Cell viability of gemcitabine-resistant PANC1 in the presence of gemcitabine (Test Example 11). It counts as cell-based. To be noted: PANC1 Gem-r at 30 µg/mL gemcitabine. The method, then:
Gemcitabine (Gem) was added to a human pancreatic cancer cell line, PANC1 at an initial concentration of 100 ng/mL. After 3 days, dead cells were removed, and gemcitabine was again added. Cells that grew like a human pancreatic cancer cell line, PANC1 even in the presence of gemcitabine were isolated and maintained for 3 months while gradually increasing the concentration of gemcitabine in a culture medium.

[9] abbreviates: 10 minutes after administration.

As for `COc1ccc(C[C@@](C)(N)C(=O)O)cc1[At]` [(R)-^211At-AAMT-OMe, (R)-3-astato(^211At)-O-methyl-α-methyltyrosine], in data set [1], the “decomposition (TLC)” value was “no decomposition”.
As to `[NH2][Pt]([NH2])([Cl])[Cl]` [CDDP, Cisplatin], the cell viability result in data set [2] is “still alive”.
On to `COc1cc(C[C@](C)(N)C(=O)O)ccc1[At]` [^211At-AAMPhe-OMe, (S)-α-methyl-4-astato(^211At)-3-methoxyphenylalanine], for which the “decomposition (TLC)” value in data set [1] was “no decomposition”. Also, the tumor accumulation in data set [3] (setting [9]) is 3.77 %ID/g; in data set [3] (1 hour after administration), 6.38 %ID/g.
Turning to `C[C@](N)(Cc1ccc(O)c([At])c1)C(=O)O` [^211At-AAMT, astato(^211At)-α-methyl-L-tyrosine, reference compound], in data set [4], the “accumulation in the tumor (planar image, γ camera)” value is “accumulated in the tumor sites”. In data set [5], the “cytotoxicity (cell viability, Cell counting kit-8)” value is on record as “has cytotoxicity”. For the same compound, the tumor accumulation in data set [3] (setting [9]) is on record as 0.29 %ID/g; in data set [3] (1 hour after administration), 2.49 %ID/g.
Consider `CCOc1ccc(C[C@](C)(N)C(=O)O)cc1[At]` [^211At-AAMT-OEt, (S)-3-astato(^211At)-O-ethyl-α-methyltyrosine], for which, in data set [6], the “apparent toxicity induced by administration” value is reported as “not observed” and the body weight result is listed as “gently increased”. Besides, in data set [6] (compared with the 211At-AAMT-OMe administration group), the “tumor growth inhibiting effect (tumor size)” value was “comparable”. Further, in data set [7], the uptake speed entry is “comparable or superior” and the “uptake level into the cells (number of radioactivity counts/protein amount)” value is “comparable or superior”. Also, in data set [1], the “decomposition (TLC)” value was “no decomposition”. The same compound had a tumor accumulation in data set [3] (setting [9]) of 4.21 %ID/g. The tumor accumulation in data set [3] (1 hour after administration) worked out at 3.59 %ID/g.
Take `CCCOc1ccc(C[C@](C)(N)C(=O)O)cc1[At]` [^211At-AAMT-OPr, (S)-3-astato(^211At)-O-propyl-α-methyltyrosine]: in data set [7], the uptake speed entry is given as “comparable or superior” and the “uptake level into the cells (number of radioactivity counts/protein amount)” value is recorded as “comparable or superior”. In addition, the “decomposition (TLC)” value in data set [1] is “no decomposition”. The compound also yielded a tumor accumulation in data set [3] (setting [9]) of 5.91 %ID/g. The tumor accumulation in data set [3] (1 hour after administration) is reported as 9.45 %ID/g.
As for `Nc1ccn([C@@H]2O[C@H](CO)[C@@H](O)C2(F)F)c(=O)n1` [gemcitabine, Gemcitabine], in data set [8], the cell viability result was “still alive”.
